PubChem BioAssay AID1996
≈ marks a conversion by molar mass, not a printed value.

details: buffer; pH 7.4; 200.0 µM

Compound | solubility kinetic
O=C(Nc1ccc(Cl)c(C(F)(F)F)c1)c1ccncc1 | 38.7 µg/mL (≈ 129 µM)
CC1CC(C)CN(C(=O)COC(=O)Cc2ccc(Cl)cc2)C1 (stereo not drawn) | 41.3 µg/mL (≈ 128 µM)
Cc1ccnc(NC(=O)c2oc3ccccc3c2C)c1 | 3.6 µg/mL (≈ 13.5 µM)
CC1CCCN(C(=O)CCCC(=O)N2CCCC(C)C2)C1 (stereo not drawn) | > 44.2 µg/mL
Cc1cc2c(cc1S(=O)(=O)N(C)c1ccccc1)NC(=O)CO2 | 3.3 µg/mL (≈ 9.93 µM)
CCCn1c(=O)c2[nH]c(-c3ccc(S(=O)(=O)O)cc3)nc2n(CCC)c1=O | > 58.9 µg/mL
O=C(O)Cc1ccc(S(=O)(=O)N2CCCC2)s1 | > 41.3 µg/mL
CCCCC(=O)N(Cc1ccc(F)cc1)C1CCS(=O)(=O)C1 (stereo not drawn) | 46.9 µg/mL (≈ 143 µM)
Cc1cc(SCC(=O)[O-])nc2ccccc12 | 31 µg/mL
O=C(Nc1cccnc1Cl)c1cc2ccccc2o1 | 7.3 µg/mL (≈ 26.8 µM)
OC1CCC(NC(=S)Nc2ccc(SC(F)F)cc2)CC1 (stereo not drawn) | 43.8 µg/mL (≈ 132 µM)
CC(=O)Nc1ccc(N/C=C/C(=O)c2ccc(Br)cc2)cc1 | 1 µg/mL (≈ 2.78 µM)
CCCN(CC(=O)Nc1cc(Cl)ccc1Cl)C(=O)c1ccccn1 | > 54.9 µg/mL
COC(=O)c1sc(SC)c2c1CC(C)(C)C/C2=N/O | < 0.6 µg/mL
Cc1ccc(S(=O)(=O)N2CCOCC2)cc1C(=O)OCC(=O)N1CCCC1=O | > 61.6 µg/mL
O=C(COc1ccc2ccc(=O)oc2c1)NC1CCCC1 | > 43.1 µg/mL
Cc1ccc(F)cc1NC(=O)CCc1c(C)[nH]c(=O)c(C#N)c1C | > 49.1 µg/mL
CCOCCCNc1ncnc2c1nc1n2CCCC1 | > 41.3 µg/mL
O=C(O)c1cccc(S(=O)(=O)Nc2ccc3c(c2)CCC3)c1 | > 47.6 µg/mL
COc1ccc(C(=O)NCCCSc2ccccc2)cc1F | 2.5 µg/mL (≈ 7.83 µM)
Cc1nc(C(=O)N2CCCC(C(=O)c3ccc(Cl)cc3)C2)cs1 (stereo not drawn) | > 52.3 µg/mL
Cc1ccc(N2CC(C(=O)NC3CC3)CC2=O)cc1 (stereo not drawn) | > 38.7 µg/mL
CCOC(=O)N1CCN(C(=O)COC(=O)c2ccc(N(C)C)cc2)CC1 | > 54.5 µg/mL
c1ccc(Nc2nc(-c3ccccc3)nc3ccccc23)cc1 | 2.5 µg/mL (≈ 8.41 µM)

Compound | solubility kinetic
Br.CC(C)CC(N)C(=O)OCc1ccc([N+](=O)[O-])cc1 (stereo not drawn) | > 52.1 µg/mL
CCCCCCCOc1ccc(C(=O)Nc2cccnc2)cc1 | < 0.3 µg/mL
O=C1N/C(=C/c2cccs2)C(=O)N1Cc1ccc(F)cc1 | < 0.3 µg/mL
Clc1ccc(Cn2ccnc2)cn1 | 24.2 µg/mL (≈ 125 µM)
C=CCn1c(C)cc(C(=O)COC(=O)CCc2cc(OC)c(OC)c(OC)c2)c1C | 31.8 µg/mL (≈ 76.5 µM)
CC(=O)NCCc1c(C)n(Cc2ccccc2)c2ccccc12 | > 46 µg/mL
CCC(c1ccc(C)cc1)N1C(=O)C2C3CCC(O3)C2C1=O (stereo not drawn) | 41.1 µg/mL (≈ 137 µM)
Cc1csc(SC(C)C(=O)Nc2ccc3c(c2)OCCO3)n1 (stereo not drawn) | > 50.5 µg/mL
COc1cc(C=O)ccc1OCC(=O)Nc1ccc2c(c1)OCO2 | 7.6 µg/mL (≈ 23.1 µM)
CCC(=O)Nc1sc2c(c1C#N)CCC2 | 12.3 µg/mL (≈ 55.8 µM)
Cc1ccnc(NCc2ccc(Cl)cc2)c1 | 3.7 µg/mL (≈ 15.9 µM)
CCOc1ccc2nc(N3C(=O)CNC3=S)sc2c1 | 2.5 µg/mL (≈ 8.52 µM)
CN(C(=O)c1cccc(C(F)(F)F)c1)C1CCCc2ccccc21 (stereo not drawn) | 19.5 µg/mL (≈ 58.5 µM)
Cc1ccc(N=C2NC(=O)/C(=C/c3cccn3C)S2)cc1C | 0.9 µg/mL (≈ 2.89 µM)
C=CCn1c(O)c(N=O)c2cc(C)ccc21 | > 32.4 µg/mL
Cc1c(-c2ccccc2)[n+](=O)c2c(n1[O-])CCCC2 | > 38.4 µg/mL
CCOc1ccc(C2NC(=O)CCC2[N+](=O)[O-])cc1 (stereo not drawn) | > 39.6 µg/mL
CCNC(=S)/N=C(/Nc1ccccc1)Nc1nc(C)cc(C)n1 | 0.8 µg/mL (≈ 2.44 µM)
COc1ccc(-c2cc(-c3ccc(O)cc3)nc(N)c2C#N)cc1OC | 1.7 µg/mL (≈ 4.89 µM)
COc1ccc(CC(=O)Nc2ccccc2N2CCCCC2)cc1OC | 30.7 µg/mL (≈ 86.6 µM)
O=C(/C=C/c1cccc(Br)c1)N1CCN(c2ccccn2)CC1 | 4.6 µg/mL (≈ 12.4 µM)
Cc1ccc(C(=O)NC(C(=O)Nc2ccccc2)c2ccccc2)cc1 (stereo not drawn) | 1 µg/mL (≈ 2.9 µM)
CCN(C(=O)CN1C(=S)NC(C)(C)CC1C)c1ccc(C)c(C)c1 (stereo not drawn) | > 52.1 µg/mL
O=S(=O)(c1ccccc1F)N1CCCc2ccccc21 | 11.2 µg/mL (≈ 38.4 µM)
